Results reported in ChEMBL document CHEMBL3885861, “Open TG-GATES”.

Organism: Rattus norvegicus
Assay: Open TG-GATES - Regimen: Single
Type: toxicity, organism-based, Sprague-Dawley
Design: regimen Single, gender Male, age 6 weeks
Conditions: in vivo, po, route gavage; for gamma-GTP / ALP / ALT / AST / BUN / CRE / Ca / Cl / DBIL / GLC / IP / K / LDH / Na / PL / RALB / TBIL / TC / TG / TP: tissue Plasma; for Bas / Eos / Fbg / Hb / Ht / Lym / MCHC / MCV / Mono / Neu / PT / Plat / RBC / Ret / WBC / APTT: tissue Blood
[1] = 300 mg/kg, 3 h, dose level Middle
[2] = 300 mg/kg, 6 h, dose level Middle
[3] = 300 mg/kg, 9 h, dose level Middle
[4] = 300 mg/kg, 24 h, dose level Middle
[5] = 1000 mg/kg, 3 h, dose level High
[6] = 1000 mg/kg, 6 h, dose level High
[7] = 1000 mg/kg, 9 h, dose level High
[8] = 1000 mg/kg, 24 h, dose level High

`O=C(O)c1cccnc1` [NIACIN] was tested, and the gamma-GTP (100 mg/kg, 24 h, dose level Low) was 1 IU/L, the Bas [1] was 0% and the Eos [1] was 1%. For the same compound, the Fbg [1] was 304.8 mg/dL, the Hb [1] was 13.1 g/dL and the Ht [1] was 39.9%. It also gave a Lym [1] of 79.2%, an MCHC [1] of 32.9% and an MCV [1] of 64.5 fL. The Mono [1] was 2.4%, the Neu [1] was 16.2% and the PT [1] was 16 s. The Plat [1] was 118.4 x10_4/uL, the RBC [1] was 620.8 x10_4/ul and the Ret [1] was 8.5%. For the same compound, the WBC [1] was 82.2 x10_2/uL, the ALP [1] was 1554 IU/L and the ALT [1] was 38.4 IU/L. The AST [1] was 73 IU/L, the BUN [1] was 13.2 mg/dL and the CRE [1] was 0.2 mg/dL. For the same compound, the Ca [1] was 10.8 mg/dL, the Cl [1] was 105.6 meq/L and the DBIL [1] was 0.002 mg/dL. The GLC [1] was 179.4 mg/dL, the IP [1] was 9.3 mg/dL and the K [1] was 3.7 meq/L. For the same compound, the LDH [1] was 184 IU/L, the Na [1] was 140.2 meq/L and the PL [1] was 120.6 mg/dL. It also gave an RALB [1] of 3 g/dL, a TBIL [1] of 0 mg/dL and a TC [1] of 73.6 mg/dL. The TG [1] was 28.8 mg/dL, the TP [1] was 5.6 g/dL and the gamma-GTP [1] was 1.2 IU/L. The Bas [2] was 0%, the Eos [2] was 0.8% and the Fbg [2] was 329.8 mg/dL. It also gave a Hb [2] of 13.6 g/dL, a Ht [2] of 41.4% and a Lym [2] of 73%. For the same compound, the MCHC [2] was 32.9%, the MCV [2] was 62.9 fL and the Mono [2] was 2.4%. It also gave a Neu [2] of 23%, a PT [2] of 16.6 s and a Plat [2] of 119.6 x10_4/uL. The RBC [2] was 657.8 x10_4/ul, the Ret [2] was 8.4% and the WBC [2] was 82.7 x10_2/uL. The ALP [2] was 1294 IU/L, the ALT [2] was 40.2 IU/L and the AST [2] was 71.4 IU/L. The BUN [2] was 12.6 mg/dL, the CRE [2] was 0.1 mg/dL and the Ca [2] was 10.6 mg/dL. For the same compound, the Cl [2] was 106.4 meq/L, the DBIL [2] was 0.002 mg/dL and the GLC [2] was 182.4 mg/dL. It also gave an IP [2] of 9.6 mg/dL, a K [2] of 3.7 meq/L and an LDH [2] of 211.8 IU/L. It also gave a Na [2] of 140.6 meq/L, a PL [2] of 125.8 mg/dL and an RALB [2] of 3 g/dL. For the same compound, the TBIL [2] was 0.002 mg/dL, the TC [2] was 76.2 mg/dL and the TG [2] was 31 mg/dL. It also gave a TP [2] of 5.6 g/dL, a gamma-GTP [2] of 1.4 IU/L and an APTT [3] of 22.4 s. It also gave a Bas [3] of 0%, an Eos [3] of 0.8% and a Fbg [3] of 304.4 mg/dL. For the same compound, the Hb [3] was 13.1 g/dL, the Ht [3] was 39.5% and the Lym [3] was 71.8%. The MCHC [3] was 33.3%, the MCV [3] was 62.6 fL and the Mono [3] was 2.2%. The Plat [3] was 114.7 x10_4/uL, the RBC [3] was 631.4 x10_4/ul and the Ret [3] was 8.5%. For the same compound, the WBC [3] was 72.8 x10_2/uL, the ALP [3] was 1319 IU/L and the ALT [3] was 38.4 IU/L. The AST [3] was 72.2 IU/L, the CRE [3] was 0.2 mg/dL and the Ca [3] was 10.9 mg/dL. For the same compound, the Cl [3] was 105.2 meq/L, the DBIL [3] was 0.006 mg/dL and the GLC [3] was 176 mg/dL. It also gave an IP [3] of 9.1 mg/dL, a K [3] of 4.2 meq/L and an LDH [3] of 169.8 IU/L. It also gave a Na [3] of 140.8 meq/L, a PL [3] of 124.8 mg/dL and an RALB [3] of 2.8 g/dL. It also gave a TBIL [3] of 0.004 mg/dL, a TC [3] of 70.2 mg/dL and a TG [3] of 50.4 mg/dL. The TP [3] was 5.3 g/dL, the gamma-GTP [3] was 1.6 IU/L and the Bas [4] was 0%. It also gave an Eos [4] of 1%, a Fbg [4] of 343 mg/dL and a Hb [4] of 13.7 g/dL. It also gave a Ht [4] of 40%, a Lym [4] of 78.4% and an MCHC [4] of 34.2%. It also gave an MCV [4] of 62.5 fL, a Mono [4] of 2.6% and a Neu [4] of 16.6%. The PT [4] was 16 s, the Plat [4] was 120.8 x10_4/uL and the RBC [4] was 640 x10_4/ul. The Ret [4] was 6.4%, the WBC [4] was 98.1 x10_2/uL and the ALP [4] was 1858 IU/L. For the same compound, the AST [4] was 70.4 IU/L, the BUN [4] was 14 mg/dL and the CRE [4] was 0.1 mg/dL. For the same compound, the Ca [4] was 10.7 mg/dL, the Cl [4] was 104.4 meq/L and the DBIL [4] was 0 mg/dL. For the same compound, the GLC [4] was 192 mg/dL, the IP [4] was 7.9 mg/dL and the K [4] was 4.1 meq/L. For the same compound, the LDH [4] was 172.2 IU/L, the Na [4] was 139.8 meq/L and the PL [4] was 156.8 mg/dL. For the same compound, the RALB [4] was 3 g/dL, the TBIL [4] was 0 mg/dL and the TC [4] was 79.4 mg/dL. For the same compound, the TG [4] was 134.4 mg/dL, the TP [4] was 5.6 g/dL and the gamma-GTP [4] was 1.4 IU/L. The Bas [5] was 0%, the Eos [5] was 1.2% and the Fbg [5] was 303 mg/dL. It also gave a Hb [5] of 13.2 g/dL, a Lym [5] of 75.2% and an MCHC [5] of 32.8%. The MCV [5] was 62.8 fL, the Mono [5] was 2.4% and the Neu [5] was 20%. For the same compound, the PT [5] was 16.2 s, the Plat [5] was 114.5 x10_4/uL and the RBC [5] was 642.4 x10_4/ul. The Ret [5] was 8.7%, the WBC [5] was 70.3 x10_2/uL and the ALP [5] was 1421 IU/L. It also gave an ALT [5] of 43.6 IU/L, an AST [5] of 79.4 IU/L and a BUN [5] of 12.2 mg/dL. It also gave a CRE [5] of 0.2 mg/dL, a Ca [5] of 10.6 mg/dL and a Cl [5] of 106.2 meq/L. It also gave a DBIL [5] of 0 mg/dL, a GLC [5] of 187 mg/dL and an IP [5] of 9.4 mg/dL. The K [5] was 3.6 meq/L, the LDH [5] was 226.4 IU/L and the Na [5] was 140.8 meq/L. It also gave a PL [5] of 118.2 mg/dL, an RALB [5] of 3.1 g/dL and a TBIL [5] of 0 mg/dL. For the same compound, the TC [5] was 72.4 mg/dL, the TG [5] was 24.4 mg/dL and the TP [5] was 5.6 g/dL. The gamma-GTP [5] was 1.2 IU/L, the Bas [6] was 0% and the Eos [6] was 1%. For the same compound, the Fbg [6] was 311 mg/dL, the Hb [6] was 13.6 g/dL and the Ht [6] was 41.3%. It also gave a Lym [6] of 75.8%, an MCHC [6] of 32.8% and an MCV [6] of 64.6 fL. The Mono [6] was 2%, the Neu [6] was 20.4% and the PT [6] was 16.4 s. For the same compound, the Plat [6] was 121.3 x10_4/uL, the RBC [6] was 641.2 x10_4/ul and the Ret [6] was 8.2%. The WBC [6] was 74.6 x10_2/uL, the ALP [6] was 1566.4 IU/L and the ALT [6] was 35 IU/L. The AST [6] was 74.6 IU/L, the BUN [6] was 12.4 mg/dL and the CRE [6] was 0.2 mg/dL. For the same compound, the Ca [6] was 10.6 mg/dL, the Cl [6] was 107.6 meq/L and the DBIL [6] was 0 mg/dL. For the same compound, the GLC [6] was 181 mg/dL, the IP [6] was 9.2 mg/dL and the K [6] was 3.8 meq/L. The LDH [6] was 210.8 IU/L, the Na [6] was 139.6 meq/L and the PL [6] was 115.2 mg/dL. The RALB [6] was 3 g/dL, the TBIL [6] was 0 mg/dL and the TC [6] was 69.6 mg/dL. For the same compound, the TG [6] was 27.8 mg/dL, the TP [6] was 5.6 g/dL and the gamma-GTP [6] was 1.4 IU/L. It also gave an APTT [7] of 22.8 s, a Bas [7] of 0% and an Eos [7] of 1%. It also gave a Fbg [7] of 324 mg/dL, a Hb [7] of 13.3 g/dL and a Lym [7] of 67%. The MCHC [7] was 33%, the MCV [7] was 62 fL and the Mono [7] was 1.8%. The Neu [7] was 29.8%, the PT [7] was 15.6 s and the Plat [7] was 116.6 x10_4/uL. The RBC [7] was 651 x10_4/ul, the Ret [7] was 8% and the WBC [7] was 71.1 x10_2/uL. For the same compound, the ALP [7] was 1673.4 IU/L, the ALT [7] was 41.2 IU/L and the AST [7] was 75.2 IU/L. It also gave a BUN [7] of 13 mg/dL, a CRE [7] of 0.2 mg/dL and a Ca [7] of 10.8 mg/dL. The Cl [7] was 106.8 meq/L, the DBIL [7] was 0.004 mg/dL and the GLC [7] was 171.2 mg/dL. It also gave an IP [7] of 9.4 mg/dL, a K [7] of 3.9 meq/L and an LDH [7] of 198.2 IU/L. For the same compound, the Na [7] was 139.8 meq/L, the PL [7] was 101.2 mg/dL and the RALB [7] was 3.1 g/dL. For the same compound, the TBIL [7] was 0.002 mg/dL, the TC [7] was 60.6 mg/dL and the TG [7] was 17.2 mg/dL. It also gave a TP [7] of 5.5 g/dL, a gamma-GTP [7] of 1.2 IU/L and a Bas [8] of 0%. The Eos [8] was 1%, the Fbg [8] was 319 mg/dL and the Hb [8] was 13.3 g/dL. For the same compound, the Ht [8] was 39.7%, the Lym [8] was 71.4% and the MCHC [8] was 33.4%. It also gave an MCV [8] of 63.3 fL, a Mono [8] of 3% and a Neu [8] of 23.2%. For the same compound, the PT [8] was 15.9 s, the Plat [8] was 117.3 x10_4/uL and the RBC [8] was 627 x10_4/ul. It also gave a Ret [8] of 7.2%, a WBC [8] of 92.1 x10_2/uL and an ALP [8] of 1735.4 IU/L. The ALT [8] was 53 IU/L, the AST [8] was 75.4 IU/L and the BUN [8] was 16.6 mg/dL. The CRE [8] was 0.2 mg/dL, the Ca [8] was 10.5 mg/dL and the Cl [8] was 104.4 meq/L. It also gave a DBIL [8] of 0 mg/dL, a GLC [8] of 188.6 mg/dL and an IP [8] of 8.1 mg/dL. For the same compound, the K [8] was 4.1 meq/L, the LDH [8] was 174.8 IU/L and the Na [8] was 139.6 meq/L. It also gave a PL [8] of 144.2 mg/dL, an RALB [8] of 3 g/dL and a TBIL [8] of 0 mg/dL. For the same compound, the TC [8] was 70.6 mg/dL, the TG [8] was 119.2 mg/dL and the TP [8] was 5.4 g/dL. For the same compound, the gamma-GTP [8] was 1 IU/L.
